Activity calls are given as the source filed them. The calls are words filed in the database; no cut-off is given here.

The test system of this assay is Antarctic bacterium. Description: Antimicrobial activity against Antarctic bacteria at 5 mg/mL. Type of assay: functional, organism-based.

As for `C=C(C)[C@@H]1CC[C@]2(CO)C=CC(=O)[C@@H](C)[C@H]2C1`, the result was Active.

Source of the values: ChEMBL document CHEMBL1146545, “Ainigmaptilones, sesquiterpenes from the Antarctic gorgonian coral Ainigmaptilon antarcticus” (J Nat Prod, 2003).
